For series [1], the system named is POLR2A Ser2 phosphorylation (CDK9). The series can be described thus: POLR2A Ser2 phosphorylation imaging assay in MCF-7 cells. As to conditions: Homo sapiens, MCF7, 2 h, MCF-7 cells, 2 hours; read-out: POLR2A Ser2 phosphorylation IC50. The series is classed as cell-based. In a few lines: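 MCF-7 cells were fixed, permeabilised and immunostained for POLR2A phospho-Ser2, then imaged by high-content microscopy. Levels were normalised to controls and IC50 values derived.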

The next series has as its system MCF-7 cells. The series is described as follows: Cellular proliferation EdU assay, MCF-7. As to conditions: Homo sapiens, MCF7, 48 h, EdU assay, two days; read-out: MCF-7 IC50. It is filed as cell-based. In a few lines:
(§1)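 MCF-7 (800 cells/well) and OVCAR3 (1200 cells/well) in RPMI with 10% FBS exposed to compounds for two days at 37 °C.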

The test system of a further series is OVCAR3 cells. The series is described as follows: Cellular proliferation EdU assay, OVCAR3. It is filed as cell-based, human. As to conditions: Homo sapiens, OVCAR-3, 48 h, EdU assay, two days; read-out: OVCAR3 IC50. In a few lines: as §1
In series [2] the target is 379 non-CDK kinase (or non-CDK kinase-complex) targets. The series can be described thus: Kinase profiling (SelectScreen, ThermoFisher). It is filed as biochemical. As to conditions: compared with Compound 6. The source says:
Test compounds were profiled against a broad panel of kinases at ThermoFisher Scientific using the SelectScreen Kinase Profiling Services. Each kinase assay used one of the following assay technology protocols: • 1) Z-LYTE™ Screening Protocol and Assay Conditions (Revised 23 Jan. 2018 version) available at http://assets.thermofisher.com/TFS-Assets/BID/Methods-&-Protocols/20180123_SSBK_Customer_Protocol_and_Assay_Conditions.pdf; • 2) Adapta™ Screening Protocol and Assay Conditions (Revised 23 Jan. 2018 version) available at http://assets.thermofisher.com/TFS-Assets/BID/Methods-&-Protocols/20180123_SSBK_Adapta_Customer_Protocol_and_Assay_Conditions.pdf; or • 3) LanthaScreen™ Eu Kinase Binding Assay Screening Protocol and Assay Conditions (Revised 23 Jan. 2018 version) available at http://assets.thermofisher.com/TFS-Assets/BID/Methods-&-Protocols/20180123_SSBK_LanthaScreen_Binding_Customer_Protocol_and_Assay_Co nditions.pdf.

Series [3] is described as follows: Aqueous thermodynamic solubility, shake-flask. The series is classed as physicochemical. As to conditions: aqueous phosphate buffer, 25 °C, pH 7.4, aqueous buffer, thermodynamic from solid, phosphate buffer 0.1 M, pH 7.4, 24 hours. In a few lines:
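Dried compound (after DMSO evaporation) was equilibrated in 0.1 M phosphate buffer pH 7.4 with stirring for 24 h at 25° C. Undissolved material was removed by double centrifugation, and the supernatant was diluted in water and quantified by UPLC/MS/MS.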

A further series concerns the target CDK2:CCNE1 (Homo sapiens (Human), UniProt P24941). The series can be described thus: NanoBRET assay in MCF-7 cells, CDK2. It is filed as cell-based. As to conditions: transfected MCF-7 cells, 2 hours, n = 1 or average. Put shortly: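 In live MCF-7 cells, compound added followed by NanoBRET TE Tracer K-9 (stock 200 μM) for CDK2, 2 h at 37° C, 5% CO2.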
The next series concerns the target CDK4:CCND1 (Homo sapiens (Human), UniProt P11802). The series is described as follows: NanoBRET assay in MCF-7 cells, CDK4. The series is classed as cell-based. As to conditions: NanoBRET, transfected MCF-7 cells, 2 hours; n = 1 or average; read-out: CDK4 IC50. Put shortly: (§2)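 Transiently transfected MCF-7 cells expressing CDK1:CCNB1 or CDK4:CCND1 were treated with compound plus tracer (CDK1: Tracer K-9, 400 μM stock; CDK4: Tracer K-7, 100 μM stock) for 2 h at 37 °C.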

A short description of series [4]: CLint assessment in human liver microsomes (HLM). As to conditions: 1 μM. The series is classed as in vitro ADME. Put shortly:
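Microsomes preincubated 8 min with NADPH, then compound added and incubated 30 min at 37° C. Remaining compound measured by LC-MS/MS. t1/2 and CLint calculated, with CLint scaled to incubation volume per mg microsomal protein.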

The next series addresses CDK1:CCNB1 (Homo sapiens (Human), UniProt P06493). The series is described as follows: NanoBRET assay in MCF-7 cells, CDK1. The series is classed as cell-based. As to conditions: NanoBRET, transfected MCF-7 cells, 2 hours; n = 1 or average; read-out: CDK1 IC50. Put shortly: as §2
The test system of series [5] is NPM phosphorylation (Thr199, CDK2-cyclin E complex). The series is described as follows: NPM phosphorylation imaging assay in MCF-7 cells. It is filed as cell-based. As to conditions: Homo sapiens, 4N DNA cells. In a few lines:
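MCF-7 cells were fixed, permeabilised and immunostained, then imaged for phospho-NPM (Thr199), a CDK2-cyclin E site. Analysis was gated on 4N-DNA cells by Hoechst staining. Signals were normalised to controls and fitted for IC50.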

Results on 11 compounds are retold here after patent US20250197425A1, “2,6,9-TRISUBSTITUTED PURINES” (ASTRAZENECA AB, priority 2022, published 2025).

≈ marks a conversion by molar mass, not a printed value.

Sequence of CDK1:CCNB1 (P06493 whole entry): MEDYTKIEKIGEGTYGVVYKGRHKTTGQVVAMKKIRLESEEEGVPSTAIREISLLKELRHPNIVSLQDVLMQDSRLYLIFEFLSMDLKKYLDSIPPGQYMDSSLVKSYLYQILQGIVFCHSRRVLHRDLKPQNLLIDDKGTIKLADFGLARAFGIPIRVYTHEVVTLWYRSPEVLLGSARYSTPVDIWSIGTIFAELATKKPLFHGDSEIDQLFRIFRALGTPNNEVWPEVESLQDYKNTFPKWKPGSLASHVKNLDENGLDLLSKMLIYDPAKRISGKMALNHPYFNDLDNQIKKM
Sequence of CDK1:CCNB1 (P14635 whole entry partner): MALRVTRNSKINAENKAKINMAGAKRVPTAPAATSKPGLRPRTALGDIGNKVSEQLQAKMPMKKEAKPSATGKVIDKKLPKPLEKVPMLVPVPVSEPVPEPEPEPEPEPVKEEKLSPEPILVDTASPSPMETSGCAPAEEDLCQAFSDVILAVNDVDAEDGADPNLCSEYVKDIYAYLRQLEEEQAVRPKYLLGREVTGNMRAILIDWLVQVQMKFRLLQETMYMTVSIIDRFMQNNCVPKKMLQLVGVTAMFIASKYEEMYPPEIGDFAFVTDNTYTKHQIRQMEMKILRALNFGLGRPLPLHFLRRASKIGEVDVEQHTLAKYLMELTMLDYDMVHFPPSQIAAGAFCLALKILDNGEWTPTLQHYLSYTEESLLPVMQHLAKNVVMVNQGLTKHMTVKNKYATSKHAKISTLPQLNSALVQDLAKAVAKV
Sequence of CDK4:CCND1 (P11802 whole entry): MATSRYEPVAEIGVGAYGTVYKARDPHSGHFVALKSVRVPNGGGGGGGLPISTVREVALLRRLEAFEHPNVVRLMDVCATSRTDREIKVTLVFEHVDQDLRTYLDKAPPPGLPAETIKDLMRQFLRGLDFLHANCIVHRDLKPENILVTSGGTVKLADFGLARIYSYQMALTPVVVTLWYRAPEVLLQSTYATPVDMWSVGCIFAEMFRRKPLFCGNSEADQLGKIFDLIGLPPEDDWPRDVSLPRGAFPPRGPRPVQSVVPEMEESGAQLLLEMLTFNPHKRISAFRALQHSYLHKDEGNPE
Sequence of CDK4:CCND1 (P24385 whole entry partner): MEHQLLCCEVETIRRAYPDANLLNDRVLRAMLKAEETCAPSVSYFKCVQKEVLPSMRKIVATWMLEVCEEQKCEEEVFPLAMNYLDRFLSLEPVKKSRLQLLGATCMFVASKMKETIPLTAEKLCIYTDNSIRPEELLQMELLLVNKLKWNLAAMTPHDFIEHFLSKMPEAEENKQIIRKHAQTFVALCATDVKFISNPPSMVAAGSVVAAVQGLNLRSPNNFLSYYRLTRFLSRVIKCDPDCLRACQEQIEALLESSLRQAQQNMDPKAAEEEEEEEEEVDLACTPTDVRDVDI

`CCn1cnc2c(N[C@H]3CCN(S(C)(=O)=O)C3)nc(N[C@@H](CO)C(C)C)nc21` [Example 28, (R)-2-((9-ethyl-6-(((S)-1-(methylsulfonyl)pyrrolidin-3-yl)amino)-9H-purin-2-yl)amino)-3-methylbutan-1-ol]: the values for the IC50 (in series [1]; with MCF-7 cells; in the series on OVCAR3 cells) were more than 30000 nM, 699 nM and 186 nM, respectively. Besides, in [2], the kinase inhibition profile result is “broadly similar kinase inhibition profiles to Compound 6”.
On to `CC[C@H](Nc1nc(N[C@H]2C[C@@H](C)N(S(C)(=O)=O)C2)c2ncn(C(C)C)c2n1)[C@@H](C)O` [Example 37, (2R,3S)-3-((9-isopropyl-6-(((3S,5R)-5-methyl-1-(methylsulfonyl)-pyrrolidin-3-yl)amino)-9H-purin-2-yl)amino)pentan-2-ol], for which the IC50 in series [1] is more than 30000 nM; against CDK2:CCNE1, 61 nM; at CDK4:CCND1, more than 29700 nM; in the series on MCF-7 cells, 2790 nM; on CDK1:CCNB1, 4590 nM; with OVCAR3 cells, 1300 nM. For the same compound, the IC50 in series [5] (MCF7, 2 hours) was 879 nM. In [3], the solubility at 24 h was found to be 414 µM (≈ 182 µg/mL). Further, the “HLM CLint” value in series [4] came out at 143 µL/min/mg.
On to `CCn1cnc2c(N[C@H]3CCN(S(C)(=O)=O)C3)nc(N[C@@H](CO)C3CC3)nc21` [Example 39, (R)-2-cyclopropyl-2-((9-ethyl-6-(((S)-1-(methylsulfonyl)pyrrolidin-3-yl)amino)-9H-purin-2-yl)amino)ethanol], for which the IC50 was more than 30000 nM in [1], 658 nM in the series on MCF-7 cells and 288 nM in the series on OVCAR3 cells. Also, the kinase inhibition profile entry in series [2] was “broadly similar kinase inhibition profiles to Compound 6”.
Take `CCn1cnc2c(N[C@H]3CCN(S(=O)(=O)CC(F)(F)F)C3)nc(N[C@@H](CO)C(C)C)nc21` [Example 40, (R)-2-((9-ethyl-6-(((S)-1-(2,2,2-trifluoroethylsulfonyl)pyrrolidin-3-yl)amino)-9H-purin-2-yl)amino)-3-methylbutan-1-ol]: the IC50 in series [1] was more than 30000 nM; against CDK2:CCNE1, 24 nM; on CDK4:CCND1, 4300 nM; with MCF-7 cells it was 2710 nM; at CDK1:CCNB1, 587 nM; in the series on OVCAR3 cells, 6720 nM. This compound gave a half-inhibitory concentration (IC50) in series [5] (MCF7, 2 h) of 253 nM. Also, the solubility at 24 h in series [3] turned out to be 1.79 µM (≈ 0.858 µg/mL). In series [4], the “HLM CLint” value is more than 300 µL/min/mg.
In the case of `CCn1cnc2c(N[C@H]3CCN(S(=O)(=O)C4CC4)C3)nc(N[C@@H](CO)C(C)C)nc21` [Example 41, (R)-2-((6-(((S)-1-(cyclopropylsulfonyl)pyrrolidin-3-yl)amino)-9-ethyl-9H-purin-2-yl)amino)-3-methylbutan-1-ol], the IC50 in series [1] is more than 30000 nM; against CDK2:CCNE1, 19 nM; on CDK4:CCND1 it was 7700 nM; in the series on MCF-7 cells it was 746 nM; at CDK1:CCNB1, 663 nM; in the series on OVCAR3 cells it was 327 nM. In addition, inhibition in [5] (MCF7, 2 h) was half-maximal at 182 nM (IC50). The same compound yielded a solubility at 24 h in series [3] of 39.2 µM (≈ 17.2 µg/mL). Moreover, in [4], the “HLM CLint” value amounted to 177 µL/min/mg.
`CCn1cnc2c(N[C@H]3CCN(S(=O)(=O)CCOC)C3)nc(N[C@@H](CO)C(C)C)nc21` [Example 42, (R)-2-((9-ethyl-6-(((S)-1-((2-methoxyethyl)sulfonyl)pyrrolidin-3-yl)-amino)-9H-purin-2-yl)amino)-3-methylbutan-1-ol]: the IC50 is more than 30000 nM in [1]; 27 nM on CDK2:CCNE1; 4500 nM on CDK4:CCND1; 925 nM with MCF-7 cells; 875 nM on CDK1:CCNB1; 428 nM in the series with OVCAR3 cells. This compound also showed an IC50 in series [5] (MCF7, 2 h) of 310 nM. Further, in series [3], the solubility at 24 h came out at 167 µM (≈ 76.1 µg/mL). In addition, in series [4], the “HLM CLint” value was found to be 196 µL/min/mg.
`CCn1cnc2c(N[C@H]3CCN(S(=O)(=O)CF)C3)nc(N[C@@H](CO)C(C)C)nc21` [Example 43, (R)-2-((9-ethyl-6-(((S)-1-(fluoromethylsulfonyl)pyrrolidin-3-yl)-amino)-9H-purin-2-yl)amino)-3-methylbutan-1-ol]: the IC50 was more than 30000 nM in [1]; 11 nM on CDK2:CCNE1; 5200 nM at CDK4:CCND1; 328 nM in the series with MCF-7 cells; 557 nM at CDK1:CCNB1; 291 nM in the series with OVCAR3 cells. Besides, the midpoint of inhibition in [5] (MCF7, 2 h), the IC50, lay at 150 nM. In [3], this compound came in with a solubility at 24 h of 97.2 µM (≈ 41.7 µg/mL). In addition, the “HLM CLint” value in series [4] turned out to be 148 µL/min/mg.
Consider `CC[C@H](Nc1nc(N[C@H]2CCN(S(=O)(=O)NC)C2)c2ncn(CC)c2n1)C(C)(C)O` [Example 46, (S)-3-((9-ethyl-2-(((S)-2-hydroxy-2-methylpentan-3-yl)amino)-9H-purin-6-yl)amino)-N-methylpyrrolidine-1-sulfonamide], for which the IC50 in [1] was more than 30000 nM; against CDK2:CCNE1, 192 nM; on CDK4:CCND1, 23700 nM; with MCF-7 cells it was 3170 nM; on CDK1:CCNB1 it was 8370 nM; in the series with OVCAR3 cells it was 1370 nM. This compound also came in with an IC50 in series [5] (MCF7, 2 hours) of 1170 nM. In [3], this compound yielded a solubility at 24 h of more than 1000 µM. Also, the “HLM CLint” value in series [4] came to 76.6 µL/min/mg.
With `CC[C@@H](CO)Nc1nc(N[C@H]2CCN(S(=O)(=O)NC)C2)c2ncn(CC)c2n1` [Example 48, (S)-3-((9-ethyl-2-(((S)-1-hydroxybutan-2-yl)amino)-9H-purin-6-yl)-amino)-N-methylpyrrolidine-1-sulfonamide], the IC50 is more than 30000 nM in series [1]; 123 nM at CDK2:CCNE1; more than 23800 nM at CDK4:CCND1; 3330 nM with MCF-7 cells; 5550 nM on CDK1:CCNB1; 2350 nM in the series on OVCAR3 cells. This compound registered an IC50 in series [5] (MCF7, 2 h) of 1300 nM. The compound also displayed a solubility at 24 h in series [3] of more than 1000 µM. For the same compound, the “HLM CLint” value in series [4] stood at 13.3 µL/min/mg.
On to `CCn1cnc2c(N[C@H]3CCN(S(=O)(=O)NC)C3)nc(N[C@@H]3c4ccccc4C[C@@H]3O)nc21` [Example 51, (S)-3-((9-ethyl-2-(((1R,2S)-2-hydroxy-2,3-dihydro-1H-inden-1-yl)amino)-9H-purin-6-yl)amino)-N-methylpyrrolidine-1-sulfonamide], for which the IC50 in [1] was 7400 nM; at CDK2:CCNE1 it was 32 nM; at CDK4:CCND1 it was 1900 nM; in the series with MCF-7 cells, 536 nM; at CDK1:CCNB1 it was 532 nM; with OVCAR3 cells, 324 nM. In series [5] (MCF7, 2 h), this compound returned an IC50 of 157 nM. The same compound gave a solubility at 24 h in series [3] of 35 µM (≈ 16.5 µg/mL). Further, the “HLM CLint” value in series [4] is 212 µL/min/mg.
As to `CCNS(=O)(=O)N1CC[C@H](Nc2cc(N[C@@H](CC)[C@@H](C)O)nc3c2ncn3CC)C1` [Example 60, (S)—N-ethyl-3-((3-ethyl-5-(((2R,3S)-2-hydroxypentan-3-yl)amino)-3H-imidazo[4,5-b]pyridin-7-yl)amino)pyrrolidine-1-sulfonamide], the half-maximal inhibitory concentration (IC50) in [1] turned out to be 6100 nM; against CDK2:CCNE1 it was 14 nM; at CDK4:CCND1 it was 2500 nM; with MCF-7 cells, 637 nM; at CDK1:CCNB1, 426 nM; in the series with OVCAR3 cells it was 89 nM. The same compound had an IC50 in [5] (MCF7, 2 h) of 64 nM. The compound further had a solubility at 24 h in [3] of 51.3 µM (≈ 22.6 µg/mL). The “HLM CLint” value in series [4] amounted to 65.6 µL/min/mg.
